± gives the expanded uncertainty stated by the source.
Experiment: osmotic coefficient (dimensionless); mn = molality of the nth substance listed, in mol/kg
Conditions: 323.15 K, 101 kPa, Liquid, isopiestic method

CCCC[n+]1cccc(C)c1.O=S(=O)([N-]S(=O)(=O)C(F)(F)F)C(F)(F)F + CC(C)O
Conditions	osmotic coefficient
m1 = 0.0504	0.909 ± 0.005
m1 = 0.0795	0.805 ± 0.01
m1 = 0.0981	0.729 ± 0.014
m1 = 0.2086	0.596 ± 0.02
m1 = 0.2979	0.536 ± 0.023
m1 = 0.3949	0.498 ± 0.025
m1 = 0.4981	0.454 ± 0.027
m1 = 0.7859	0.384 ± 0.031
m1 = 1.188	0.321 ± 0.034
m1 = 1.583	0.266 ± 0.037
m1 = 1.975	0.244 ± 0.038
m1 = 2.381	0.233 ± 0.038
m1 = 2.763	0.234 ± 0.038
m1 = 3.323	0.225 ± 0.039

CCC[n+]1cccc(C)c1.O=S(=O)([N-]S(=O)(=O)C(F)(F)F)C(F)(F)F + CC(C)O
Conditions	osmotic coefficient
m1 = 0.0497	0.974 ± 0.001
m1 = 0.0805	0.806 ± 0.01
m1 = 0.1081	0.756 ± 0.012
m1 = 0.1987	0.632 ± 0.018
m1 = 0.2986	0.508 ± 0.025
m1 = 0.41	0.415 ± 0.029
m1 = 0.5278	0.379 ± 0.031
m1 = 0.8355	0.334 ± 0.033
m1 = 1.221	0.281 ± 0.036
m1 = 1.623	0.24 ± 0.038
m1 = 2.072	0.217 ± 0.039
m1 = 2.437	0.206 ± 0.04
m1 = 2.828	0.191 ± 0.04
m1 = 3.326	0.184 ± 0.041

CC[n+]1cccc(C)c1.O=S(=O)([N-]S(=O)(=O)C(F)(F)F)C(F)(F)F + CC(C)O
Conditions	osmotic coefficient
m1 = 0.049	0.951 ± 0.003
m1 = 0.0748	0.834 ± 0.008
m1 = 0.0982	0.752 ± 0.012
m1 = 0.2129	0.605 ± 0.02
m1 = 0.3058	0.529 ± 0.024
m1 = 0.404	0.464 ± 0.027
m1 = 0.5051	0.428 ± 0.029
m1 = 0.8164	0.335 ± 0.033
m1 = 1.211	0.274 ± 0.036
m1 = 1.625	0.233 ± 0.038
m1 = 2.011	0.21 ± 0.04
m1 = 2.415	0.19 ± 0.041
m1 = 2.847	0.176 ± 0.041
m1 = 3.335	0.174 ± 0.041

CCCC[n+]1cccc(C)c1.O=S(=O)([N-]S(=O)(=O)C(F)(F)F)C(F)(F)F + CCC(C)O
Conditions	osmotic coefficient
m1 = 0.0527	0.735 ± 0.013
m1 = 0.0838	0.623 ± 0.019
m1 = 0.1035	0.581 ± 0.021
m1 = 0.2136	0.45 ± 0.028
m1 = 0.3113	0.379 ± 0.031
m1 = 0.411	0.337 ± 0.033
m1 = 0.5068	0.292 ± 0.035
m1 = 0.7963	0.235 ± 0.038
m1 = 1.217	0.195 ± 0.04
m1 = 1.576	0.171 ± 0.041
m1 = 2.032	0.149 ± 0.043
m1 = 2.408	0.135 ± 0.043
m1 = 2.799	0.126 ± 0.044
m1 = 3.261	0.119 ± 0.044

CCCC[n+]1cccc(C)c1.O=S(=O)([N-]S(=O)(=O)C(F)(F)F)C(F)(F)F + CCCCO
Conditions	osmotic coefficient
m1 = 0.0539	0.692 ± 0.015
m1 = 0.082	0.581 ± 0.021
m1 = 0.1023	0.508 ± 0.025
m1 = 0.1892	0.403 ± 0.03
m1 = 0.3045	0.305 ± 0.035
m1 = 0.4112	0.259 ± 0.037
m1 = 0.5115	0.238 ± 0.038
m1 = 0.8265	0.203 ± 0.04
m1 = 1.232	0.179 ± 0.041
m1 = 1.58	0.155 ± 0.042
m1 = 2.087	0.132 ± 0.043
m1 = 2.466	0.12 ± 0.044
m1 = 2.878	0.112 ± 0.044
m1 = 3.434	0.102 ± 0.045

CCCC[n+]1cccc(C)c1.O=S(=O)([N-]S(=O)(=O)C(F)(F)F)C(F)(F)F + CCCO
Conditions	osmotic coefficient
m1 = 0.0318	0.917 ± 0.004
m1 = 0.0485	0.78 ± 0.011
m1 = 0.0788	0.72 ± 0.014
m1 = 0.2157	0.571 ± 0.021
m1 = 0.3181	0.487 ± 0.026
m1 = 0.417	0.44 ± 0.028
m1 = 0.527	0.389 ± 0.031
m1 = 0.8342	0.324 ± 0.034
m1 = 1.24	0.274 ± 0.036
m1 = 1.63	0.229 ± 0.039
m1 = 2.053	0.203 ± 0.04
m1 = 2.439	0.191 ± 0.04
m1 = 2.768	0.182 ± 0.041
m1 = 3.304	0.174 ± 0.041

CCC[n+]1cccc(C)c1.O=S(=O)([N-]S(=O)(=O)C(F)(F)F)C(F)(F)F + CCCO
Conditions	osmotic coefficient
m1 = 0.0279	0.943 ± 0.003
m1 = 0.0456	0.826 ± 0.009
m1 = 0.0782	0.699 ± 0.015
m1 = 0.0966	0.651 ± 0.017
m1 = 0.2052	0.553 ± 0.022
m1 = 0.2936	0.504 ± 0.025
m1 = 0.3902	0.435 ± 0.028
m1 = 0.5073	0.363 ± 0.032
m1 = 0.8376	0.294 ± 0.035
m1 = 1.261	0.242 ± 0.038
m1 = 1.656	0.217 ± 0.039
m1 = 2.045	0.196 ± 0.04
m1 = 2.425	0.175 ± 0.041
m1 = 2.825	0.165 ± 0.042
m1 = 3.31	0.159 ± 0.042

CC[n+]1cccc(C)c1.O=S(=O)([N-]S(=O)(=O)C(F)(F)F)C(F)(F)F + CCCO
Conditions	osmotic coefficient
m1 = 0.0291	0.924 ± 0.004
m1 = 0.0485	0.788 ± 0.011
m1 = 0.0836	0.704 ± 0.015
m1 = 0.104	0.68 ± 0.016
m1 = 0.2111	0.57 ± 0.022
m1 = 0.3124	0.496 ± 0.025
m1 = 0.4076	0.411 ± 0.029
m1 = 0.5148	0.354 ± 0.032
m1 = 0.8269	0.297 ± 0.035
m1 = 1.23	0.237 ± 0.038
m1 = 1.577	0.211 ± 0.039
m1 = 2.059	0.18 ± 0.041
m1 = 2.455	0.161 ± 0.042
m1 = 2.8	0.15 ± 0.043
